Like-named read-outs stand apart in the source and are kept apart here.
Columns and labels:
[1] = system: MDA-MB-231/ATCC; assay: NCI-60 anticancer screen (SRB; single dose and five doses); conditions: Homo sapiens
[2] = system: HS 578T; assay: as above; conditions: Homo sapiens
[3] = system: NCI/ADR-RES; assay: as above; conditions: Homo sapiens
[4] = system: A549/ATCC; assay: as above; conditions: Homo sapiens
[5] = system: OVCAR-3; assay: cells; conditions: Homo sapiens
[6] = system: SK-OV-3; assay: NCI-60 anticancer screen (SRB; single dose and five doses); conditions: Homo sapiens
[7] = system: A498; assay: as above; conditions: Homo sapiens
[8] = system: CAKI-1; assay: as above; conditions: Homo sapiens
[9] = system: SF-539; assay: as above; conditions: Homo sapiens
[10] = system: K-562; assay: as above; conditions: Homo sapiens
[11] = system: PC-3; assay: as above; conditions: Homo sapiens
[12] = system: EKVX; assay: as above; conditions: Homo sapiens
[13] = system: 60 human tumor cell lines panel; assay: NCI-60 anticancer screen, whole panel (means and ranges over the cell lines); type: cell-based; conditions: Homo sapiens, 48 h, dose of 10 μM
[14] = system: SN12C; assay: NCI-60 anticancer screen (SRB; single dose and five doses); conditions: Homo sapiens
[15] = system: HOP-92; assay: as above; conditions: Homo sapiens
[16] = system: ACHN; assay: as above; conditions: Homo sapiens
[17] = system: RXF 393; assay: as above; conditions: Homo sapiens
[18] = system: SR; assay: as above; conditions: Homo sapiens
[19] = system: SNB-75; assay: as above
[20] = system: IGROV1; assay: as above; conditions: Homo sapiens
[21] = system: MDA-MB-435; assay: as above; conditions: Homo sapiens
[22] = system: OVCAR-5; assay: as above; conditions: Homo sapiens
[23] = system: KM12; assay: as above; conditions: Homo sapiens
[24] = system: SK-MEL-28; assay: as above; conditions: Homo sapiens
[25] = system: SW-620; assay: as above; conditions: Homo sapiens
[26] = system: NCI-H522; assay: as above; conditions: Homo sapiens
[27] = system: DU-145; assay: as above; conditions: Homo sapiens
[28] = system: HT29; assay: as above; conditions: Homo sapiens
[29] = system: CCRF-CEM; assay: NCI-60 anticancer screen (SRB; single dose 10 μM and five doses); conditions: Homo sapiens
[30] = 48 h, read-out: Growth Percentage

SMILES: COc1cc(/C=C/C(=O)c2sc(=S)[nH]c2C)cc(OC)c1OC [2p, (E)-1-(4-Methyl-2-Thioxo-2,3-Dihydrothiazol-5-yl)-3-(3,4,5-Trimethoxyphenyl)Prop-2-En-1-One]
- GI50 ([1]; MDA-MB-231): 3.24 µM
- IC50 ([1]; MDA-MB-231): 10 µM
- activity at 10 µM ([1]; MDA-MB-231, 48 h, read-out: Growth Percentage): 2.51%
- CC50 ([1]; MDA-MB-231, read-out: LC50): > 100 µM
- IC (TGI) ([1]; MDA-MB-231, read-out: TGI): 13.2 µM
- GI50 [2]: 2.88 µM
- IC50 [2]: > 100 µM
- activity at 10 µM [2, 30]: 3.94%
- CC50 ([2]; read-out: LC50): > 100 µM
- IC (TGI) ([2]; read-out: TGI): 39.8 µM
- GI50 [3]: 2.4 µM
- IC50 [3]: 4.37 µM
- activity at 10 µM [3, 30]: 0.58%
- CC50 ([3]; read-out: LC50): > 100 µM
- IC (TGI) ([3]; read-out: TGI): 7.41 µM
- GI50 ([4]; A549): 3.55 µM
- IC50 ([4]; A549): 5.01 µM
- activity at 10 µM ([4]; A549, 48 h, read-out: Growth Percentage): 26.6%
- CC50 ([4]; A549, read-out: LC50): 44.7 µM
- IC (TGI) ([4]; A549, read-out: TGI): 13.8 µM
- GI50 ([5]; OVCAR-3): 2.45 µM
- activity at 10 µM ([5]; OVCAR-3, 48 h, read-out: Growth Percentage): -25.2%
- IC50 ([5]; OVCAR-3, five-dose, Ovarian Cancer OVCAR-3): 5.25 µM
- CC50 ([5]; OVCAR-3, read-out: LC50): 25.7 µM
- IC (TGI) ([5]; OVCAR-3, read-out: TGI): 6.92 µM
- GI50 ([6]; SK-OV-3): 7.41 µM
- IC50 ([6]; SK-OV-3): 46.8 µM
- activity at 10 µM ([6]; SK-OV-3, 48 h, read-out: Growth Percentage): 31.2%
- CC50 ([6]; SK-OV-3, read-out: LC50): > 100 µM
- IC (TGI) ([6]; SK-OV-3, read-out: TGI): > 100 µM
- GI50 ([7]; A498): 11.5 µM
- IC50 ([7]; A498): 43.6 µM
- activity at 10 µM ([7]; A498, 48 h, read-out: Growth Percentage, A498, dose of 10 μM): 96.5%
- CC50 ([7]; A498, read-out: LC50): > 100 µM
- IC (TGI) ([7]; A498, read-out: TGI): 34.7 µM
- GI50 ([8]; CAKI-1): 2.57 µM
- IC50 ([8]; CAKI-1): 4.68 µM
- activity at 10 µM ([8]; CAKI-1, 48 h, read-out: Growth Percentage): 28.2%
- CC50 ([8]; CAKI-1, read-out: LC50): 45.7 µM
- IC (TGI) ([8]; CAKI-1, read-out: TGI): 13.2 µM
- GI50 ([9]; SF-539): 2.19 µM
- IC50 ([9]; SF-539): 4.47 µM
- activity at 10 µM ([9]; SF-539, 48 h, read-out: Growth Percentage): -13.9%
- IC (TGI) ([9]; SF-539, read-out: TGI): 5.5 µM
- GI50 ([10]; K562): 3.02 µM
- IC50 ([10]; K562): 3.72 µM
- activity at 10 µM ([10]; K562, 48 h, read-out: Growth Percentage): 8.21%
- CC50 ([10]; K562, read-out: LC50): > 100 µM
- IC (TGI) ([10]; K562, read-out: TGI): > 100 µM
- GI50 ([11]; PC-3): 5.01 µM
- IC50 ([11]; PC-3): 8.91 µM
- activity at 10 µM ([11]; PC-3, 48 h, read-out: Growth Percentage): 35.7%
- CC50 ([11]; PC-3, read-out: LC50): > 100 µM
- IC (TGI) ([11]; PC-3, read-out: TGI): 41.7 µM
- GI50 [12]: 4.07 µM
- IC50 [12]: 11 µM
- activity at 10 µM [12, 30]: 23.4%
- CC50 ([12]; read-out: LC50): > 100 µM
- IC (TGI) ([12]; read-out: TGI): 22.9 µM
- activity at 10 µM ([13]; mean over the tested cell lines, read-out: Mean growth percentage): 14.9%
- activity at 10 µM ([13]; range over the cell lines, read-out: growth percentages against most of the tested cells (lowest to highest)): -64.6 to 96.5%
- GI50 [14]: 2.29 µM
- IC50 [14]: 3.89 µM
- activity at 10 µM [14, 30]: 7.3%
- CC50 ([14]; read-out: LC50): 46.8 µM
- IC (TGI) ([14]; read-out: TGI): 9.55 µM
- GI50 ([15]; HOP-92): 2.95 µM
- IC50 ([15]; HOP-92): 44.7 µM
- activity at 10 µM ([15]; HOP-92, 48 h, read-out: Growth Percentage): 16.4%
- CC50 ([15]; HOP-92, read-out: LC50): > 100 µM
- IC (TGI) ([15]; HOP-92, read-out: TGI): 19.9 µM
- GI50 [16]: 3.89 µM
- IC50 [16]: 6.46 µM
- activity at 10 µM [16, 30]: 19.6%
- CC50 ([16]; read-out: LC50): 55 µM
- IC (TGI) ([16]; read-out: TGI): 16.6 µM
- GI50 ([17]; RXF 393): 2.51 µM
- IC50 ([17]; RXF 393): 11.2 µM
- activity at 10 µM ([17]; RXF 393, 48 h, read-out: Growth Percentage): 30.3%
- CC50 ([17]; RXF 393, read-out: LC50): 30.9 µM
- IC (TGI) ([17]; RXF 393, read-out: TGI): 7.08 µM
- GI50 [18]: 2.34 µM
- IC50 [18]: 3.8 µM
- CC50 ([18]; read-out: LC50): > 100 µM
- IC (TGI) ([18]; read-out: TGI): 16.2 µM
- GI50 ([19]; Homo sapiens, SNB-75): 2.19 µM
- IC50 ([19]; Homo sapiens, SNB-75): 7.59 µM
- CC50 ([19]; Homo sapiens, SNB-75, read-out: LC50): 28.8 µM
- TGI ([19]; five-dose, CNS Cancer SNB-75): 6.17 µM
- GI50 ([20]; IGROV-1): 3.31 µM
- IC50 ([20]; IGROV-1): 5.75 µM
- CC50 ([20]; IGROV-1, read-out: LC50): > 100 µM
- IC (TGI) ([20]; IGROV-1, read-out: TGI): 13.8 µM
- GI50 ([21]; MDA-MB-435): 2.57 µM
- IC50 ([21]; MDA-MB-435): 4.47 µM
- activity at 10 µM ([21]; MDA-MB-435, 48 h, read-out: Growth Percentage): 11%
- CC50 ([21]; MDA-MB-435, read-out: LC50): > 100 µM
- IC (TGI) ([21]; MDA-MB-435, read-out: TGI): 10.5 µM
- GI50 ([22]; OVCAR-5): 3.8 µM
- IC50 ([22]; OVCAR-5): 12.3 µM
- activity at 10 µM ([22]; OVCAR-5, 48 h, read-out: Growth Percentage): 6.56%
- CC50 ([22]; OVCAR-5, read-out: LC50): 43.6 µM
- IC (TGI) ([22]; OVCAR-5, read-out: TGI): 15.1 µM
- GI50 ([23]; KM12): 3.24 µM
- IC50 ([23]; KM12): 6.46 µM
- activity at 10 µM ([23]; KM12, 48 h, read-out: Growth Percentage): 9.52%
- CC50 ([23]; KM12, read-out: LC50): 42.7 µM
- IC (TGI) ([23]; KM12, read-out: TGI): 13.8 µM
- GI50 ([24]; SK-MEL-28): 4.07 µM
- IC50 ([24]; SK-MEL-28): 9.12 µM
- activity at 10 µM ([24]; SK-MEL-28, 48 h, read-out: Growth Percentage): 24.2%
- CC50 ([24]; SK-MEL-28, read-out: LC50): 57.5 µM
- IC (TGI) ([24]; SK-MEL-28, read-out: TGI): 17.4 µM
- GI50 ([25]; SW-620): 2.57 µM
- IC50 ([25]; SW-620): 3.72 µM
- activity at 10 µM ([25]; SW-620, 48 h, read-out: Growth Percentage): 6.92%
- CC50 ([25]; SW-620, read-out: LC50): 46.8 µM
- IC (TGI) ([25]; SW-620, read-out: TGI): 9.77 µM
- GI50 ([26]; NCI-H522): 3.16 µM
- IC50 ([26]; NCI-H522): 7.59 µM
- activity at 10 µM ([26]; NCI-H522, 48 h, read-out: Growth Percentage): 16.3%
- CC50 ([26]; NCI-H522, read-out: LC50): 40.7 µM
- IC (TGI) ([26]; NCI-H522, read-out: TGI): 12.3 µM
- GI50 ([27]; DU-145): 3.24 µM
- IC50 ([27]; DU-145): 5.75 µM
- activity at 10 µM ([27]; DU-145, 48 h, read-out: Growth Percentage): 12.9%
- CC50 ([27]; DU-145, read-out: LC50): 69.2 µM
- IC (TGI) ([27]; DU-145, read-out: TGI): 15.5 µM
- GI50 ([28]; HT-29): 3.47 µM
- IC50 ([28]; HT-29): 4.57 µM
- activity at 10 µM ([28]; HT-29, 48 h, read-out: Growth Percentage): 40.1%
- CC50 ([28]; HT-29, read-out: LC50): > 100 µM
- IC (TGI) ([28]; HT-29, read-out: TGI): 13.5 µM
- GI50 [29]: 2.45 µM
- activity at 10 µM [29, 30]: 4.92%
- IC50 ([29]; five-dose, Leukemia CCRF-CEM): 3.55 µM
- IC (TGI) ([29]; read-out: TGI): 8.71 µM
